Assay results taken from patent US10618918B2, “Substituted boronic acids as antimicrobials” (priority 2015, dated 2020).
Where two headings read alike, the source gives them in different places.

Columns and labels:
[1] = target: T1, purified class A, C and D enzymes (β-lactamases) (Acinetobacter baumannii, UniProt Q9L4P2); assay: biochemical; format: biochemical; conditions: purified OXA-23; nitrocefin (NCF) as reporter substrate
T1 construct: rows headed: Ki (OXA-23, NCF), uM; other: purified OXA-23; nitrocefin (NCF) as reporter substrate
T1 sequence (Q9L4P2 whole entry): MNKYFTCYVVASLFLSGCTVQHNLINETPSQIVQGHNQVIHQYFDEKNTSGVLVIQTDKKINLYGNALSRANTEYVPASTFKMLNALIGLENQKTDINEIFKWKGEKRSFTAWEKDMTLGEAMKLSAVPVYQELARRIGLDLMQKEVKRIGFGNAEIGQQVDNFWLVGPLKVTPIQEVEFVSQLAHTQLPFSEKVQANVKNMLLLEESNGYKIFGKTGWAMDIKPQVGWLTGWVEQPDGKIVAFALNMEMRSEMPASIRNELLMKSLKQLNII

[2] = target: purified class A, C and D enzymes (β-lactamases) (Enterobacter cloacae, UniProt P05364); assay: biochemical; format: biochemical
purified class A, C and D enzymes (β-lactamases) (Enterobacter cloacae, UniProt P05364), sequence (P05364 21-381): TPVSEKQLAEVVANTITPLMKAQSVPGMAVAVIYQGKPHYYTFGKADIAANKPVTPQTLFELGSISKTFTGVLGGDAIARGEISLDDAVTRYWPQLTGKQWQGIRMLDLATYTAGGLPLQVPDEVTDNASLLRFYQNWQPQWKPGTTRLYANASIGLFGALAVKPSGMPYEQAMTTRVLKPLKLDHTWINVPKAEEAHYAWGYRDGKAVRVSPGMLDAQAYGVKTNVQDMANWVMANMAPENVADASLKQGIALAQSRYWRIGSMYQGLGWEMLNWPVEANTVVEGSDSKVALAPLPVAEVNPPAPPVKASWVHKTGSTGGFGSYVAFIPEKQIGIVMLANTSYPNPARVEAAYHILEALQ

[3] = target: T2, purified class A, C and D enzymes (β-lactamases) (UniProt P0AD64, L31Q/G234S/E235K, species not given); assay: biochemical; format: biochemical
T2 construct: Ki (SHV-12, NCF), uM; other: purified SHV-12; nitrocefin (NCF) as reporter substrate
T2 sequence (P0AD64 1-286 L31Q/G234S/E235K): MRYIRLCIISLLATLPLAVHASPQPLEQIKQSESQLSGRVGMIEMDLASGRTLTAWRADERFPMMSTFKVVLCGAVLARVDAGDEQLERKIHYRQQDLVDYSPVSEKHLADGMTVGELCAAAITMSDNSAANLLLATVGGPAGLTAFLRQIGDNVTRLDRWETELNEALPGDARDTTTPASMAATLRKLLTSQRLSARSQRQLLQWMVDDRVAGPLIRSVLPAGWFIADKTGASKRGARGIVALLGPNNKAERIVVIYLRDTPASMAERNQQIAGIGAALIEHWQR

[4] = target: purified class A, C and D enzymes (β-lactamases) (Escherichia coli, UniProt Q9L5C7); assay: biochemical; format: biochemical; conditions: purified CTX-M-14; nitrocefin (NCF) as reporter substrate
purified class A, C and D enzymes (β-lactamases) (Escherichia coli, UniProt Q9L5C7), sequence (Q9L5C7 entry or part of it): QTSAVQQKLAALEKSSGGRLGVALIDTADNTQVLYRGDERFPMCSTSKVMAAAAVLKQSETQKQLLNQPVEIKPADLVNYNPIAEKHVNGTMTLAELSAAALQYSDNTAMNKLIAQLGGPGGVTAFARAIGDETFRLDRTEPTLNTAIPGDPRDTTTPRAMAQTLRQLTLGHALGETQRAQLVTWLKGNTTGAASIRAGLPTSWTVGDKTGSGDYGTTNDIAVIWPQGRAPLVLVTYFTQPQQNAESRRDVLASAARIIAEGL

[5] = target: T3, purified class A, C and D enzymes (β-lactamases) (Pseudomonas aeruginosa, UniProt P24735); assay: biochemical; format: biochemical
T3 construct: rows headed: Ki (Pa-AmpC, NCF), uM; other: purified Pa-AmpC; nitrocefin (NCF) as reporter substrate
T3 sequence (P24735 whole entry): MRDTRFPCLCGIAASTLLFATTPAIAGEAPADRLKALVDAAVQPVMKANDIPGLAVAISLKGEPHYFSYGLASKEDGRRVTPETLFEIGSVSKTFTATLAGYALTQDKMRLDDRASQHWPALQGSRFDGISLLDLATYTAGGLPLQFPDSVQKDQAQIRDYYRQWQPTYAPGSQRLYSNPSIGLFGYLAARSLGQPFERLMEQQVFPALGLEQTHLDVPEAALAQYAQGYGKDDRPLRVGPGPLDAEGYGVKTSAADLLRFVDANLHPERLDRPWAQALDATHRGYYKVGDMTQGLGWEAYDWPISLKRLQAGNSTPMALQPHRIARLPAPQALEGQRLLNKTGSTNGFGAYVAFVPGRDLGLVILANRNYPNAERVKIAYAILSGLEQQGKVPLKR

[6] = target: purified class A, C and D enzymes (β-lactamases) (Klebsiella pneumoniae, UniProt Q6XEC0); assay: biochemical; format: biochemical; conditions: purified OXA-48; nitrocefin (NCF) as reporter substrate
[7] = target: purified class A, C and D enzymes (β-lactamases) (Klebsiella pneumoniae, UniProt Q9F663); assay: biochemical; format: biochemical; conditions: purified KPC-2; nitrocefin (NCF) as reporter substrate
[8] = system: ec302 TEM-10; assay: Aztreonam potentiation (MPC@4), strain ec302 TEM-10; conditions: minimum BLI concentration inhibiting growth with aztreonam 4 μg/mL; tested up to 40 μg/mL
[9] = system: EC1010 CMY-6; assay: Aztreonam potentiation (MPC@4), strain EC1010 CMY-6; conditions: minimum BLI concentration inhibiting growth with aztreonam 4 μg/mL; tested up to 40 μg/mL
[10] = system: ECL1002; assay: Aztreonam potentiation (MPC@4), strain ECL1002; conditions: minimum BLI concentration inhibiting growth with aztreonam 4 μg/mL; tested up to 40 μg/mL
[11] = system: KP1005 CTX-M-14; assay: Tigemonam potentiation (MPC@4), strain KP1005 CTX-M-14; conditions: minimum BLI concentration inhibiting growth with tigemonam 4 μg/mL; tested up to 40 μg/mL
[12] = system: AB1053 OXA-72; assay: Meropenem potentiation (MPC@8), strain AB1053 OXA-72; format: cell-based, Acinetobacter baumannii; conditions: minimum BLI concentration inhibiting growth with meropenem 8 μg/mL; tested up to 20 μg/mL
[13] = system: KP1004 KPC-2; assay: Biapenem potentiation (MPC@1), strain KP1004 KPC-2; format: cell-based; conditions: minimum BLI concentration inhibiting growth with biapenem 1 μg/mL; tested up to 40 μg/mL
Procedure: (§1) Biapenem was present in the test medium at 1 μg/mL. […] Table 3 summarizes the BLI potency of biapenem potentiation (MPC@1) for two strains overexpressing class A (KPC) and class D (OXA-48) carbapenemases. Biapenem MIC for each strain is also shown.

[14] = system: KP1004 KPC-2; assay: Aztreonam potentiation (MPC@4), strain KP1004 KPC-2; conditions: minimum BLI concentration inhibiting growth with aztreonam 4 μg/mL; tested up to 40 μg/mL
[15] = system: KP1009 CTX-M-15; assay: Aztreonam potentiation (MPC@4), strain KP1009 CTX-M-15; conditions: minimum BLI concentration inhibiting growth with aztreonam 4 μg/mL; tested up to 40 μg/mL
[16] = system: KP1086 OXA-48; assay: Biapenem potentiation (MPC@1), strain KP1086 OXA-48; format: cell-based; conditions: minimum BLI concentration inhibiting growth with biapenem 1 μg/mL; tested up to 40 μg/mL
Procedure: as §1

[17] = system: KP1010 SHV-12; assay: Aztreonam potentiation (MPC@4), strain KP1010 SHV-12; conditions: minimum BLI concentration inhibiting growth with aztreonam 4 μg/mL; tested up to 40 μg/mL
[18] = system: ec308 SHV-5; assay: Aztreonam potentiation (MPC@4), strain ec308 SHV-5; conditions: minimum BLI concentration inhibiting growth with aztreonam 4 μg/mL; tested up to 40 μg/mL
[19] = system: AB1054 OXA-23; assay: Meropenem potentiation (MPC@8), strain AB1054 OXA-23; format: cell-based, Acinetobacter baumannii; conditions: minimum BLI concentration inhibiting growth with meropenem 8 μg/mL; tested up to 20 μg/mL
[20] = read-out: Ki (SHV-12, NCF); purified SHV-12; nitrocefin (NCF) as reporter substrate

Row | Compound | Ki [1] [µM] | Ki (CTX-M-14, NCF), uM [4] | Ki (OXA-48, NCF), uM [6] | Ki (KPC-2, NCF), uM [7] | AZT MPC4 TEM-10 ec302 [8] | AZT MPC4 CMY-6 EC1010 [9] | AZT MPC4 ECL1002 [10] | TIG MPC4 CTX-M-14 KP1005 [11] | MPM MPC8 AB1053 OXA-72 [12] | BPM MPC1 KP1004 KPC-2 [13] | AZT MPC4 KPC-2 KP1004 [14] | AZT MPC4 CTX-M-15 KP1009 [15] | BPM MPC1 OXA-48 KP1086 [16] | AZT MPC4 SHV-12 KP1010 [17] | AZT MPC4 SHV-5 ec308 [18] | MPM MPC8 AB1054 OXA-23 [19] | Ki (P99, NCF), uM [2] | Ki [3, 20] [µM] | Ki [5] [µM] | other results
1 | C[C@H]1Cc2cccc(C(=O)O)c2O[B-]1(O)O [Compound 9, Disodium; (3S)-4,4-dihydroxy-3-methy-5-oxa-4-boranuidabicyclo[4.4.0]deca-1(6),7,9-triene-7-carboxylate] | 0.1 to 1 | X (X = Ki ≤ 0.1 μM) | X (X = Ki ≤ 0.1 μM) | X (X = Ki ≤ 0.1 μM) | Z (Z = MPC@4 > 20 μg/mL) | Y (Y = 5 μg/mL < MPC@4 ≤ 20 μg/mL) | Y (Y = 5 μg/mL < MPC@4 ≤ 20 μg/mL) | Z (Z = MPC@4 > 20 μg/mL) | Z (Z = MPC@1 > 20 μg/mL) | X (X = MPC@1 ≤ 5 μg/mL) | X (X = MPC@4 ≤ 5 μg/mL) | Z (Z = MPC@4 > 20 μg/mL) | X (X = MPC@1 ≤ 5 μg/mL) | Y (Y = 5 μg/mL < MPC@4 ≤ 20 μg/mL) | Y (Y = 5 μg/mL < MPC@4 ≤ 20 μg/mL) | Z (Z = MPC@1 > 20 μg/mL) | – | – | – | Ki (P99, NCF), uM ([2]; purified P99, nitrocefin (NCF) as reporter substrate): X (X = Ki ≤ 0.1 μM); Ki ([3]; purified SHV-12; nitrocefin (NCF) as reporter substrate; read-out: Ki (SHV-12, NCF)): 0.1 to 1 µM; Ki ([5]; purified Pa-AmpC, nitrocefin (NCF) as reporter substrate, read-out: Ki (Pa-AmpC, NCF)): < 0.1 µM
2 | C[C@@H]1Cc2cccc(C(=O)[O-])c2O[B-]1(O)O.[Na+].[Na+] [Compound 10, Disodium; (3R)-4,4-dihydroxy-3-methyl-5-oxa-4-boranuidabicyclo[4.4.0]deca-1(6),7,9-triene-7-carboxylate] | > 1 | X (X = Ki ≤ 0.1 μM) | X (X = Ki ≤ 0.1 μM) | X (X = Ki ≤ 0.1 μM) | Z (Z = MPC@4 > 20 μg/mL) | Z (Z = MPC@4 > 20 μg/mL) | Z (Z = MPC@4 > 20 μg/mL) | Z (Z = MPC@4 > 20 μg/mL) | Z (Z = MPC@1 > 20 μg/mL) | X (X = MPC@1 ≤ 5 μg/mL) | Y (Y = 5 μg/mL < MPC@4 ≤ 20 μg/mL) | Z (Z = MPC@4 > 20 μg/mL) | Y (Y = 5 μg/mL < MPC@1 ≤ 20 μg/mL) | Y (Y = 5 μg/mL < MPC@4 ≤ 20 μg/mL) | Z (Z = MPC@4 > 20 μg/mL) | Z (Z = MPC@1 > 20 μg/mL) | Y (key: X = Ki ≤ 0.1 μM; Y = 0.1 μM < Ki ≤ 1 μM; Z = Ki > 1 μM) | 0.1 to 1 | < 0.1 | –
3 | O=C([O-])c1c(-c2ccn[nH]2)ccc2c1O[B-](O)(O)CC2.[Na+].[Na+] [Compound 15, Disodium; 4,4-dihydroxy-8-(1H-pyrazol-5-yl)-5-oxa-4-boranuidabicyclo[4.4.0]deca-1(6),7,9-triene-7-carboxylate] | < 0.1 | X (X = Ki ≤ 0.1 μM) | X (X = Ki ≤ 0.1 μM) | X (X = Ki ≤ 0.1 μM) | X (X = MPC@4 ≤ 5 μg/mL) | X (X = MPC@4 ≤ 5 μg/mL) | X (X = MPC@4 ≤ 5 μg/mL) | Z (Z = MPC@4 > 20 μg/mL) | X (X = MPC@1 ≤ 5 μg/mL) | X (X = MPC@1 ≤ 5 μg/mL) | X (X = MPC@4 ≤ 5 μg/mL) | X (X = MPC@4 ≤ 5 μg/mL) | X (X = MPC@1 ≤ 5 μg/mL) | X (X = MPC@4 ≤ 5 μg/mL) | X (X = MPC@4 ≤ 5 μg/mL) | X (X = MPC@1 ≤ 5 μg/mL) | X (key: X = Ki ≤ 0.1 μM; Y = 0.1 μM < Ki ≤ 1 μM; Z = Ki > 1 μM) | < 0.1 | < 0.1 | –
4 | NCCn1cc(-c2ccc3c(c2C(=O)O)O[B-](O)(O)CC3)nn1 [Compound 17, Disodium; 8-[1-(2-aminoethyl)triazol-4-yl]-4,4-dihydroxy-5-oxa-4-boranuidabicyclo[4.4.0]deca-1(6),7,9-triene-7-carboxylate] | < 0.1 | X (X = Ki ≤ 0.1 μM) | X (X = Ki ≤ 0.1 μM) | X (X = Ki ≤ 0.1 μM) | Z (Z = MPC@4 > 20 μg/mL) | Y (Y = 5 μg/mL < MPC@4 ≤ 20 μg/mL) | Z (Z = MPC@4 > 20 μg/mL) | Z (Z = MPC@4 > 20 μg/mL) | X (X = MPC@1 ≤ 5 μg/mL) | X (X = MPC@1 ≤ 5 μg/mL) | X (X = MPC@4 ≤ 5 μg/mL) | Z (Z = MPC@4 > 20 μg/mL) | X (X = MPC@1 ≤ 5 μg/mL) | Y (Y = 5 μg/mL < MPC@4 ≤ 20 μg/mL) | Z (Z = MPC@4 > 20 μg/mL) | X (X = MPC@1 ≤ 5 μg/mL) | Y (key: X = Ki ≤ 0.1 μM; Y = 0.1 μM < Ki ≤ 1 μM; Z = Ki > 1 μM) | 0.1 to 1 | 0.1 to 1 | –
